Reference: US20080220416A1, “Compositions for Inhibiting Cell Growth and Inducing Apoptosis in Cancer Cells and Methods of Use Thereof” (THE BOARD OF TRUSTEES OF THE UNIVERSITY OF ILLINOI, priority 2004, published 2008)
“Also recorded” adds a separate entry of the source. Square brackets hold non-standard residues; d marks the D form. Peptide text beside a SMILES is read from it. * marks the point of attachment. Nle = CCCC[C@H](N)C(=O)O; Cbz = O=C(OCc1ccccc1)*

What was measured:
[1] = system: NOXA; test: Bortezomib on NOXA in SAOS2 osteogenic sarcoma cells (Western blot); assay type: cell-based; settings: SAOS2, p53-null; 1 μM; 24 hr exposure
Procedure: To test whether the NOXA inducing effect of bortezomib is limited to melanomas, SAOS2 cells (ATTC, Rockville, Md.), an osteogenic sarcoma cell line (p53-null) was exposed to 1 μM bortezomib. SAOS2 cells were tested for p53 expression and induction of NOXA expression before and during a 24 hr exposure to bortezomib (1 μM). The cells were assayed by Western blot using antibodies to NOXA, p53 and β-actin as described above.

[2] = system: T47D:A18 breast cancer cells; test: z-Leu-Leu-Nle-CHO plus Paclitaxel, growth inhibition of T47D:A18 cells; assay type: cell-based, human; settings: 0-0.8 μM with Paclitaxel, 48 h
Procedure: Three different types of breast cancer cells were contacted with varying concentrations of z-Leu-Leu-Nle-CHO (0-0.8 μM) and the mitotic poison Paclitaxel (0.01-1 μM). MDA-MB231 cells were obtained from ATCC (Rockville, Md.). T47D:C42 and T47D:A18 cells were a kind gift of Debra Tonetti (University of Illinois-Chicago). MDA-MB231 cells were cultured in DMEM medium with 10% FBS. T47D:C42 and T47D:A18 cells were propagated in RPMI 1640 with 10% FBS, 100 μM non-essential amino acid and 6 ng/ml insulin. Gamma-secretase inhibitor z-Leu-Leu-Nle-CHO (Calbiochem 565750) was dissolved in DMSO, aliquoted and stored at −80° C. Paclitaxel (Sigma, St. Louis Mo.) was dissolved in DMSO, aliquoted and stored at −80° C.
To determine whether z-Leu-Leu-Nle-CHO treatment potentiates the effect of Paclitaxel on human breast cancer cells, MDA-MB231, T47D:C42 and T47D:A18 cells were treated for 48 h with 0-0.8 μM z-Leu-Leu-Nle-CHO and various concentrations of Paclitaxel (0.008-1 μM) Following the z-Leu-Leu-Nle-CHO and Paclitaxel treatment, the cells were tested for growth inhibition as described above in Example 13.

[3] = system: NOXA; test: Western blot of pro-apoptotic proteins in normal melanocytes treated with z-Leu-Leu-Nle-CHO; assay type: cell-based, human; settings: data not shown
[4] = system: C8161 melanoma tumor xenograft; test: C8161 melanoma tumor xenograft in Nude mice, z-Leu-Leu-Nle-CHO injections; assay type: in vivo
Procedure: Assessment of tumor formation in Nude mice was performed by adapting the method described in Hendrix, M. J. et al., 1997, Am J Pathol 150:483-495. Tumors were established in Nude mice as follows. Briefly, 1×10^6 aggressive melanoma cells (C8161) (ATCC, Rockville, Md.) were injected subcutaneously in Nude mice on day 0, and the tumors were allowed to grow for 1 week. Beginning on day 8, mice received injections (100 μl) of DMSO carrier only (control group) or z-Leu-Leu-Nle-CHO (1 mM in DMSO) (Calbiochem, LaJolla, Calif.) (experimental group) every other day for 1 week. Tumor sizes (mm^2) were determined on day 7 prior to injections with or z-Leu-Leu-Nle-CHO or DMSO, and on day 14. Average tumor size for both groups was normalized, and size of tumors at 2 weeks was averaged. Detection of apoptosis in tissue sections was performed using TUNEL staining as described in Wrone-Smith et al, 1997, Am J Pathol. 151:1321-9.

[5] = system: NOXA; test: Western blot of pro-survival and pro-apoptotic proteins in melanoma cells; assay type: cell-based, human; settings: 10 μM
Procedure: To assess the effect of z-Leu-Leu-Nle-CHO on pro-apoptotic proteins, RJ002L pulmonary metastases melanoma cells were grown in RPMI supplemented with 10% FBS. Highly proliferating cells (i.e., cells that had reached approximately 30% confluency) were exposed to z-Leu-Leu-Nle-CHO by replenishing the culture media with media containing z-Leu-Leu-Nle-CHO (10 μM) (experimental group) or media without z-Leu-Leu-Nle-CHO (control group) and the cells were incubated for a specified period of time prior to harvesting the cells for further analysis.
Western blot analyses following z-Leu-Leu-Nle-CHO and control treatment of RJ002L melanoma cells were performed to determine the effect of z-Leu-Leu-Nle-CHO on pro-survival and pro-apoptotic proteins. Whole cell extracts were prepared and analyzed as described by Denning, M. F. et al., 1998, J Biol Chem 273: 29995-30002, 1998. The enriched mitochondria pellet and mitochondria-free cytosol of melanoma cells were prepared with the APO ALERT cell fraction kit (Clontech Laboratories, Inc. Palo Alto, Calif.) according to the manufacturer's instructions. For Western blot analysis, equal amounts of protein extracted from each sample (20-30 μg) were loaded into pre-cast 7% NuPAGE Tris-acetate gels or 4-12% NuPAGE Bis-tris gels (Invitrogen). Proteins were separated by SDS-PAGE and transferred to polyvinylidene difluoride membranes (Bio-Rad, Hercules, Calif.) using Invitrogen's buffering system. The indicated primary antibodies were incubated for indicated period of time, washed, and visualized by incubation with horseradish peroxidase-conjugated secondary antibodies and chemiluminescent reagents (Roche Diagnostics Corporation, Indianapolis, Ind.). Antibodies used were as follows: From Santa Cruz Biotechnology: Bcl-2 (SC-7382), BCl-xL (SC-634), Mcl-1 (SC-819), survivin (SC-10811), Bax (SC-493), Bak (SC-832), Bim (SC-11425), PUMA (SC-19187), p53 (SC-126), and GADD45 (SC-796); From Cell Signaling: Bid (#2002), and cleaved caspase 9 (9501); NOXA (OP180—Oncogene Research Products), Apaf-1 (559683-BD Bioscience), Smac/Diablo (IMG-248-Imgenex), cytochrome C (part of kit—Apo Alert™ cell fraction kit—Clontech Laboratories, Inc.—Palo Alto, Calif.), PARP (Pharmingen, San Diego, Calif.) and β-actin (Sigma Chemical Co., St. Louis, Mo.). Secondary antibodies anti-goat, anti-mouse, anti-rabbit and anti-rat (IgG-HRP) were purchased from Vector Laboratories (Burlingame, Calif.), Santa Cruz Biotechnology and Amersham Biosciences.
To determine if p53 status influences induction of NOXA, NOXA induction in z-Leu-Leu-Nle-CHO-treated melanoma cell lines (10 μM) containing p53 mutations (i.e. C8161, SK-MeI-28, MUM2B) were examined using Western blot analysis as described above and compared to that of Western blot results from z-Leu-Leu-Nle-CHO-treated melanoma cell lines (10 μM) having wild-type p53 (RJ002L, SK-MeI-100). […] In contrast, C8161, which carries a R196Stop mutation in only one allele, has p53 expression similar to that observed in wild-type cell lines. […] NOXA induction occurred earlier in SK-MeI-100 cells than in the other tested cell lines (FIG. 2C). Apaf-1 levels were not increased in response to z-Leu-Leu-Nle-CHO (data not shown).

| Structure (SMILES) | time course of NOXA induction [1] | effect on Paclitaxel cell growth inhibition [2] | induction of pro-apoptotic proteins (Bak, Bim, NOXA) [3] | average tumor size ([4]; 1 mM in DMSO, 100 μl every other day for 1 week, compared to DMSO, p=0.046, n=11) | apoptosis in tumor by immunofluorescent TUNEL assay ([4]; 1 week of treatment, 1 mM, versus DMSO carrier) | induction of pro-apoptotic proteins ([5]; RJ002L) | time course of NOXA induction ([5]; RJ002L) | NOXA induction ([5]; all tested melanoma cell lines, regardless of p53 mutation status) |
| --- | --- | --- | --- | --- | --- | --- | --- | --- |
| CC(C)C[C@H](NC(=O)[C@H](Cc1ccccc1)NC(=O)c1cnccn1)B(O)O [bortezomib, N-(2-pyrazine)carbonyl-L-phenylalanine-L-leucine boronic acid] | induction of NOXA occurred beginning at 3-6 hrs with more prominent levels detected at 18-24 hrs |  |  |  |  |  |  |  |
| CCCC[C@@H](C=O)NC(=O)[C@H](CC(C)C)NC(=O)[C@H](CC(C)C)NC(=O)OCc1ccccc1 [z-Leu-Leu-Nle-CHO, N-benzyloxycarbonyl-leucyl-leucyl-norleucinal] (Cbz-Leu-Leu-[Nle]-aldehyde) |  | potentiated the effects of Paclitaxel on cell growth inhibition | did not induce any of the pro-apoptotic proteins; also recorded: did not induce NOXA in normal melanocytes | significantly reduced tumor size | High levels of apoptosis | induced expression of Bak, Bim, and NOXA | detectable as early as 1 hr and was massive by 6-18 hrs | induced NOXA in all tested melanoma cell lines |
